Entries after “also recorded” stand apart in the source; their conditions may differ. Like-named read-outs stand apart in the source and are kept apart here.
Tests used:
[1] = cited from earlier work
xanthine oxidase = details: cited from earlier work; for inhibiting the enzyme xanthine oxidase: allopurinol and oxypurinol compared with each other
[2] = portion of allopurinol; cited from earlier work
serum uric acid = assay: Uric acid decreasing effect in test persons with hyperuricaemia; assay type: in vivo; details: for decrease of the serum uric acid level: daily 384 mg sodium oxypurinol or 300 mg allopurinol, two weeks; for decrease of the serum uric acid level (in words): sodium oxypurinol compared with allopurinol
[3] = pH value of aqueous solution; assay type: physicochemical; details: 5% aqueous solution
Description: However, from the examples it can be seen that not the pure sodium salt was used, but a mixture of salt and excess sodium hydroxide solution. This follows especially from the pH values of about 1 to 2% solutions, being 11.5 or 12.0. The sodium salt having been prepared by the applicant in pure and crystalline form for the first time has a pH value of 9.7 in 5% aqueous solution, and crystallizes as the monohydrate.
(§1) Said sodium salt is monosodium oxypurinol monohydrate. The salt is white and crystallizes in fine needles.

[4] = Stability of the salt on air and on drying; assay type: physicochemical
Method: The salt is stable on air and endures drying temperatures up to about 70° C.

Solubility = assay type: physicochemical; details: methanol/water 3:1, organic solvent or mixture; 25° C.; read-out: solubility in methanol/water (3:1 by vol.)
Description: as §1

| SMILES | resorbable upon peroral application ([1]; from galenic formulations, per os) | inhibiting the enzyme xanthine oxidase (xanthine oxidase) | resorbable upon peroral application ([1]; in vivo) | activity of allopurinol itself (xanthine oxidase; therapeutic effect only after metabolizing to oxypurinol) | excreted via kidneys [2] [%] | decrease of the serum uric acid level (serum uric acid) [mg/100 ml] | decrease of the serum uric acid level (in words) (serum uric acid) | pH value [3] | decrease of the serum uric acid level (in words) (serum uric acid; monohydrate) | endures drying temperatures up to ([4]; drying) | stability on air ([4]; on air) | solubility (Solubility) [µg/mL] |
| --- | --- | --- | --- | --- | --- | --- | --- | --- | --- | --- | --- | --- |
| Oc1nc(O)c2cn[nH]c2n1 [oxypurinol, 4,6-dihydroxypyrazolo[3,4-d]pyrimidine] | no success was achieved in finding a galenic formulation being sufficiently resorbable per os | equally strongly | – | – | – | – | – | – | – | – | – | – |
| Oc1ncnc2[nH]ncc12 [allopurinol] | – | equally strongly | well resorbable | little activity itself | 3 to 10 | 2.0 | comparable; also recorded: approximately equal decrease | – | – | – | – | – |
| Oc1nc(O)c2cn[nH]c2n1 [sodium oxypurinol, monosodium oxypurinol monohydrate] | – | – | – | – | – | 2.1 | – | 9.7 | comparable; also recorded: approximately equal decrease | about 70 °C | stable on air | ~2000 |

— US5661154A (priority 1988, dated 1997)
